Experimental data from patent US8470010B2, “Systems and methods for treating superficial venous malformations like spider veins” (Green Medical, Inc., priority 2006, dated 2013).

Tests used:
[1] = system: superficial venous anatomy of the ears; test: Photodynamic treatment of superficial venous anatomy of rabbit ears (IV LS11, then 664 nm LED light); assay type: in vivo, New Zealand White Rabbits
Description: The superficial venous anatomy of the ears of New Zealand White Rabbits were treated by injecting light-reactive agent LS11 (Talaporfin Sodium) in doses selected to approximate a human dose, and thereafter exposing the superficial venous anatomy to light at a wavelength of 664 nm in dose periods ranging from 8 to 12 minutes.
A total of twelve rabbits were treated. Each rabbit (weighing approximately six pounds) was intravaneously sedated for approximately 25 minutes using Ketamine and secured to a treatment table before being treated. The ears were shaved clean of hair and skin prepped with alcohol.
LS11 (Talaporfin Sodium, from Light Sciences Oncology, Inc.) was selected as the light reactive agent 14. […] Different doses of LS11 (at a concentration of 0.125 mg per cc) were administered to different rabbits, at 0.25 mg/kg; 0.50 mg/kg; 1.0 mg/kg; and 1.5 mg/kg, respectively. The doses were selected to approximate a human dose of 3 mg/ml to 10 mg/ml (a dose of 0.2 to 0.5 mg/kg).
The doses were administered to each rabbit's ear intravenously in a slow bolus method over a period of 5 minutes. After a pre-selected delay of ten minutes following the injection, a light-applying carrier 60 of the type shown in FIG. 18A (with a linear array of three LED's) was laid on the head of the rabbit over the treated ear, which was held tight against the carrier (see FIG. 20). […]

cancer (solid tumors) = details: with array of light emitting diodes; preclinical and human clinical trials in United States, Europe and Japan; cited from earlier work

For `C=Cc1c(C)c2cc3nc(c(CC(=O)N[C@@H](CC(=O)O)C(=O)O)c4[nH]c(cc5nc(cc1[nH]2)C(C)=C5CC)c(C)c4C(=O)O)[C@@H](CCC(=O)O)[C@@H]3C` [LS11, mono-L-aspartyl chlorine e6], which “Visible alterations in the superficial venous anatomy (shrinkage of veins) in treated ear” value ([1]; IV 0.25, 0.50, 1.0 or 1.5 mg/kg, 664 nm light for 8 to 12 minutes, other ear as control) is on record?
Its value is “Visible alterations in the superficial venous anatomy due to shrinkage of veins in the treated regions were observed”.

And the “Alteration of superficial venous anatomy, treated ear vs control ear (FIG. 21)” value ([1]; LS11 dose 1.5 mg/kg IV, light dose 8 min of 664 nm light)?
Its value is “visibly alter the superficial venous anatomy, due to shrinkage of veins in the targeted region”.

What about the “Efficacy in treating cancer (solid tumors)” value (cancer (solid tumors)) of the same compound?
Its value is “has shown efficacy in treating cancer (solid tumors)”.
